Like-named read-outs stand apart in the source and are kept apart here.
Legend:
HCT116 P53+/+ = experiment: Growth inhibition of colon cancer HCT116 P53+/+; type: cell-based; conditions: Homo sapiens, HCT-116, colon cancer HCT116 P53+/+
Excerpt: (§1) The analogs were then further tested for inhibiting growth against various cancer cell lines: AML (Mol3, OCI), Colon cancer (HCT116) and Ovary cancer (SKOV3). IC50 are documented in Table 2.

SKOV3 P53−/− = experiment: Growth inhibition of ovary cancer SKOV3 P53−/−; type: cell-based; conditions: Homo sapiens, SK-OV-3, ovary cancer SKOV3 P53−/−
Excerpt: as §1

SKOV3 P53+/+ = experiment: Growth inhibition of ovary cancer SKOV3 P53+/+; type: cell-based; conditions: Homo sapiens, SK-OV-3, ovary cancer SKOV3 P53+/+
Excerpt: as §1

HCT116 P53−/− = experiment: Growth inhibition of colon cancer HCT116 P53−/−; type: cell-based; conditions: Homo sapiens, HCT-116, colon cancer HCT116 P53−/−
Excerpt: as §1

HL60 cells [1] = experiment: Growth of HL60 cells (IC50); type: cell-based, human; set-up: HL-60, Dif50/IC50 column: second value of 'x/y at 1.25 uM' (growth): unit not given here
Protocol: (§2) The analogs were then tested and evaluated on the ability to affect differentiation and growth of HL60 cells.

HL60 cells [2] = experiment: Differentiation of HL60 cells (Dif50); type: cell-based, human; conditions: for EC50: Homo sapiens, HL-60, HL-60 cells, differentiation, read-out: HL-60, Dif50
Excerpt: The tested compounds and their respective results are produced in Table 1. Those skilled in the art will appreciate that combining the securinine and/or norsecurinine analogs with other differentiation inducing agents, such as all-trans retinoic acid, cytarabine and/or an anthracycline, would be of further benefit. Those skilled in the art will appreciate that inducing differentiation may further reduce oxidative damage due to lower presence of radical inducing enzymes (see, e.g., Yamada et al. J Biol Chem 259(5)3021-3025 (1984) and Weil et al., PNAS 84:2057-2061 (1987)).
as §2

MOL3 = experiment: Growth inhibition of AML cell line MOL3; type: cell-based, human; conditions: Homo sapiens
Excerpt: as §1

OCI = experiment: Growth inhibition of AML cell line OCI; type: cell-based, human; conditions: Homo sapiens
Excerpt: as §1

mice = experiment: Seizures in mice; type: in vivo; conditions: due to GABA receptor binding
Excerpt: The present invention provides for methods of treating a condition as described herein with less adverse additional effects. As is known in the art, securinine antagonizes the GABAA receptor.

[3] = no unit in head or cell (other cells of the column print uM)

O=C1C=C2C(C#Cc3cc4ccccc4c4ccccc34)=C[C@@H]3C[C@@]2(O1)[C@H]1CCCCN31 [INVS-MG-158B]
IC50 (HCT116 P53+/+): 1.2 µM
IC50 (SKOV3 P53−/−): 3.1 µM
IC50 (SKOV3 P53+/+): 1.2 µM
IC50 (HCT116 P53−/−): 2.3 µM

C=CCOCC#CC1=C[C@@H]2C[C@@]3(OC(=O)C=C13)[C@H]1CCCCN21 [INVS-MG-159A]
HL-60, Dif50/IC50 column: second value of 'x/y at 10 uM' (growth) (HL60 cells [1]; HL-60 cells, at 10 uM): 20/20 at 10 uM
HL-60, Dif50/IC50 column: first value of 'x/y at 10 uM' (differentiation) (HL60 cells [2]; HL-60 cells, at 10 uM): 20/20 at 10 uM

O=C1C=C2C(C#CC3C=CCCC3)=C[C@@H]3C[C@@]2(O1)[C@H]1CCCCN31 (stereo partly shown) [INVS-MG-160B]
HL-60, Dif50/IC50 column: second value of 'x/y at 1.25 uM' (growth) (HL60 cells [1]; HL-60 cells, at 1.25 uM): 40
HL-60, Dif50/IC50 column: first value of 'x/y at 1.25 uM' (differentiation) (HL60 cells [2]; HL-60 cells, at 1.25 uM): 50

N#Cc1ccc(C#CC2=C[C@@H]3C[C@@]4(OC(=O)C=C24)[C@H]2CCCCN32)cc1 [INVS-MG-164B]
IC50 (HCT116 P53+/+): 5.2 µM
IC50 (SKOV3 P53−/−): 4.2 µM
IC50 (SKOV3 P53+/+): 6.8 µM
IC50 (HCT116 P53−/−): 6.4 µM

COc1cccc(C#CC2=C[C@@H]3C[C@@]4(OC(=O)C=C24)[C@H]2CCCCN32)c1 [INVS-MG-165B]
IC50 (HCT116 P53+/+): 3.2 µM
IC50 (SKOV3 P53−/−): 3.5 µM
IC50 (SKOV3 P53+/+): 3.6 µM
IC50 (HCT116 P53−/−): 4.2 µM

O=C1C=C2C(C#Cc3ccc(OC(F)(F)F)cc3)=C[C@@H]3C[C@@]2(O1)[C@H]1CCCCN31 [INVS-MG-166B]
IC50 (HCT116 P53+/+): 2.4 µM
IC50 (SKOV3 P53−/−): 3.2 µM
IC50 (SKOV3 P53+/+): 3.5 µM
IC50 (MOL3): > 0.3 µM
IC50 (OCI): > 0.3 µM
IC50 (HCT116 P53−/−): 3.8 µM

O=C1C=C2CC(S(=O)(=O)c3ccccc3)[C@@H]3C[C@@]2(O1)[C@H]1CCCCN31 (stereo partly shown) [INVS-MG-184B]
EC50 (HL60 cells [2]; [3]): 5 to 7.5 µM

C#CC1=C[C@@H]2C[C@@]3(OC(=O)C=C13)[C@H]1CCCCN21 [INVS-MG-207-II]
EC50 (HL60 cells [2]; [3]): > 0.07 µM

O=C1C=C2C(c3cn(Cc4ccccc4)nn3)=C[C@@H]3C[C@@]2(O1)[C@H]1CCCCN31 [INVS-MG-209A]
IC50 (HL60 cells [1]; Homo sapiens, HL-60, HL-60 cells, growth, read-out: HL-60, IC50): < 10 µM
EC50 (HL60 cells [2]): < 10 µM

OC1C=C2CC(SCc3ccccc3)[C@@H]3C[C@@]2(O1)[C@H]1CCCCN31 (stereo partly shown) [Sec-2]
EC50 (HL60 cells [2]; [3]): > 30 µM

Oc1ccccc1CSC1CC2=CC(O)O[C@@]23C[C@@H]1N1CCCC[C@@H]13 (stereo partly shown) [Sec-4]
EC50 (HL60 cells [2]; [3]): 15 to 20 µM

OC1C=C2CC(SC3CCCC3)[C@@H]3C[C@@]2(O1)[C@H]1CCCCN31 (stereo partly shown) [Sec-6]
EC50 (HL60 cells [2]; [3]): 15 to 20 µM

CSC1CC2=CC(O)O[C@@]23C[C@@H]1N1CCCC[C@@H]13 (stereo partly shown) [Sec-8]
EC50 (HL60 cells [2]; [3]): 10 to 15 µM

COc1ccc(SC2CC3=CC(O)O[C@@]34C[C@@H]2N2CCCC[C@@H]24)cc1 (stereo partly shown) [Sec-9]
EC50 (HL60 cells [2]; [3]): 20 to 30 µM

O=C1C=C2CC(N3CCN(c4ccc(Br)cc4)CC3)[C@@H]3C[C@@]2(O1)[C@H]1CCCCN31 (stereo partly shown) [Sec-11]
EC50 (HL60 cells [2]; [3]): 15 to 20 µM

OC1CC2CC[C@@H]3C[C@@]2(O1)[C@H]1CCCCN31 (stereo partly shown) [Sec-16]
EC50 (HL60 cells [2]; [3]): 20 to 30 µM

CC1CC2=CC(=O)O[C@@]23C[C@@H]1N1CCCC[C@@H]13 (stereo partly shown) [Sec-18 & Sec-20]
EC50 (HL60 cells [2]; [3]): 20 to 30 µM

O=C1C=C2CC(S(=O)Oc3ccccc3)[C@@H]3C[C@@]2(O1)[C@H]1CCCCN31 (stereo partly shown) [Sec-19]
EC50 (HL60 cells [2]; [3]): 20 to 30 µM

O=C1C=C2CC([S+]([O-])c3ccccc3)[C@@H]3C[C@@]2(O1)[C@H]1CCCCN31 (stereo partly shown) [Sec-21]
EC50 (HL60 cells [2]; [3]): 20 to 30 µM

O=C1C=C2C=C[C@@H]3C[C@@]2(O1)[C@H]1CCCCN31 [Securinine]
seizures in mice (mice): causes seizures

Reference: patent publication US9827229B2, “Small molecule securinine and norsecurinine analogs and their use in cancers, inflammatory diseases and infections” (INVENIO THERAPEUTICS INC., priority 2013, dated 2017)
